Assay results from the NIST ThermoML archive (doi:10.1016/j.fluid.2016.07.022).

Tests used:
[1] = 101.33 kPa, Liquid; for viscosity: Falling or rolling sphere viscometry; for speed of sound: Frequency=3 MHz, Single path-length method; for mass density: Vibrating tube method
[2] = wn = mass fraction of the nth substance listed; conditions: 298.15 K, 100 kPa, Liquid; for viscosity: Falling or rolling sphere viscometry; for speed of sound: Frequency=3 MHz, Single path-length method; for mass density: Vibrating tube method

CC(=O)[O-].CCCC[NH2+]CCO [N-(2-hydroxyethyl)butan-1-aminium acetate]
[1]
Conditions	mass density [kg/m3]	speed of sound [m/s]	viscosity [mPa·s]
293.15 K	1021.2	1566.5	548.2
298.15 K	1017.8	1546.5	421.6
303.15 K	1014.3	1528.1	295.4
308.15 K	1010.8	1510.8	214.5
313.15 K	1007.3	1494	158.4
318.15 K	1003.8	1477.6	119
323.15 K	1000.3	1461.4	89.4
328.15 K	996.6	1445.2	68.6
333.15 K	993	1429.3	54
338.15 K	989.3	1413.2	42.9
343.15 K	985.6	1397.2	34.5

CCCC(=O)[O-].CCCC[NH2+]CCO [N-(2-hydroxyethyl)butan-1-aminium butyrate]
[1]
Conditions	mass density [kg/m3]	speed of sound [m/s]	viscosity [mPa·s]
293.15 K	983.7	1484.6	748.6
298.15 K	980.1	1466.6	576.8
303.15 K	976.6	1449	435.9
308.15 K	973	1431.9	318.9
313.15 K	969.4	1415.2	231.6
318.15 K	965.7	1398.7	158.1
323.15 K	962	1382.4	122.4
328.15 K	958.3	1366.2	92.6
333.15 K	954.5	1350.2	69.8
338.15 K	950.7	1334.1	55.2
343.15 K	946.9	1318.2	43.1

CCCC(=O)[O-].CCCC[NH2+]CCO [N-(2-hydroxyethyl)butan-1-aminium butyrate] + O
[2]
Conditions	mass density [kg/m3]	speed of sound [m/s]	viscosity [mPa·s]
w2 = 0.002762	980.15	1464.6	197.67
w2 = 0.004186	981.17	1466.2	190.86
w2 = 0.005795	982.18	1467.9	185.52
w2 = 0.006761	982.74	1468.9	182.63

CCCC[NH2+]CCO.O=C[O-] [N-(2-hydroxyethyl)butan-1-aminium formate]
[1]
Conditions	mass density [kg/m3]	speed of sound [m/s]	viscosity [mPa·s]
293.15 K	1038.1	1616.5	474.4
298.15 K	1035.1	1602.4	332.8
303.15 K	1032.1	1588.4	234.2
308.15 K	1029.1	1574.7	170.2
313.15 K	1026.1	1561.4	128.3
318.15 K	1023.1	1548.2	96.9
323.15 K	1020.1	1535.1	75
328.15 K	1017	1522.2	57.3
333.15 K	1013.9	1509.2	45.7
338.15 K	1010.9	1496.4	36.3
343.15 K	1007.8	1483.4	29.3

CCCCC(=O)[O-].CCCC[NH2+]CCO [N-(2-hydroxyethyl)butan-1-aminium pentanoate]
[1]
Conditions	mass density [kg/m3]	speed of sound [m/s]	viscosity [mPa·s]
293.15 K	970	1460	896.3
298.15 K	966.5	1442.3	684.1
303.15 K	963	1425.1	505.8
308.15 K	959.4	1408.3	349.9
313.15 K	955.8	1391.8	244.1
318.15 K	952.2	1375.7	177.1
323.15 K	948.5	1359.6	131.1
328.15 K	944.8	1343.8	98.1
333.15 K	941.1	1328	73.9
338.15 K	937.4	1312.2	57.9
343.15 K	933.6	1296.6	45.4

CCC(=O)[O-].CCCC[NH2+]CCO [N-(2-hydroxyethyl)butan-1-aminium propionate]
[1]
Conditions	mass density [kg/m3]	speed of sound [m/s]	viscosity [mPa·s]
293.15 K	1004.9	1513.8	675.6
298.15 K	1001.4	1496.1	502.6
303.15 K	997.9	1478.9	385.1
308.15 K	994.4	1462.2	282.1
313.15 K	990.8	1445.9	212
318.15 K	987.3	1429.7	155
323.15 K	983.6	1413.7	115.6
328.15 K	979.9	1397.4	87.6
333.15 K	976.3	1381.6	67.4
338.15 K	972.5	1365.8	52.4
343.15 K	968.8	1350.1	41.6
